Measurements published in paper PMC7955127, “Preclinical small molecule WEHI-7326 overcomes drug resistance and elicits response in patient-derived xenograft models of human treatment-refractory tumors” (Cell Death & Disease, 2021).

Tests used:
[1] = test system: COG-N-496x neuroblastoma PDX; test: High-risk neuroblastoma PDX COG-N-496x; assay type: in vivo, NSG mice; settings: COG-N-496x PDX; vincristine 0.5 mg/kg i.p. once weekly
Description: (§1) All animal studies were performed in accordance with the guidelines approved by University of New South Wales Animal Care and Ethics Committee (ACEC 17/53B) and in accordance with the requirements of the Australian Code for the Care and Use of Animals for Scientific Purposes. PDX models COG-N-440x and COG-N-496x were obtained from the Childhood Cancer Repository, Texas Tech University Health Sciences Center in Lubbock, TX, USA. 6–8 week old female NSG mice were engrafted by subcutaneous injection with 1 × 10^6 freshly thawed PDX tumor cells into one flank in a mixture of 100 μl RPMI-1640 and 100 μl Matrigel. Mice were monitored for tumor development three times weekly and tumor size measured using digital Vernier calipers. Treatments commenced when tumors reached 50 mm^3, following randomization into treatment arms. […] Mice were treated with either vincristine (0.5 mg/kg, once weekly i.p. in sterile saline for up to 5 weeks), WEHI-7326 (20 mg/kg; twice weekly i.v. in sterile saline for up to 5 weeks) or vehicle (as for WEHI-7326). For the Th-MYCN transgenic mouse model, spontaneous tumor growth in mice homozygous for the MYCN transgene was assessed by abdominal palpation at least twice a week. Treatments commenced once a small palpable tumor (~5 mm) was detected, following randomization to treatment arms. Mice were euthanized upon detection of an abdominal tumor of ~1 cm in diameter. […]

[2] = test system: COG-N-440x neuroblastoma PDX; test: High-risk neuroblastoma PDX COG-N-440x; assay type: in vivo, NSG mice; settings: COG-N-440x PDX; vincristine 0.5 mg/kg i.p. once weekly
Description: as §1

CC[C@]1(O)C[C@H]2CN(CCc3c([nH]c4ccccc34)[C@@](C(=O)OC)(c3cc4c(cc3OC)N(C=O)[C@H]3[C@@](O)(C(=O)OC)[C@H](OC(C)=O)[C@]5(CC)C=CCN6CC[C@]43[C@@H]65)C2)C1 [vincristine, reference compound]
Efficacy [1]: entirely ineffective
Efficacy [2]: entirely ineffective
